According to patent US20090068290A1, “BIFEPRUNOX DOSES FOR TREATING SCHIZOPHRENIA” (priority 2006, published 2009):

Assays:
[1] = system: adult subjects with schizophrenia; test: Adverse events (TEAE, SAE, special interest, EPS-related TEAE), Clinical Study Two; format: in vivo, human
Experimental: Subjects who completed this study had the option to continue in the long-term. […] Risperidone-treated subjects were titrated from 2 mg to 6 mg daily over a three-day period and were subsequently maintained at 6 mg/day for the remainder of the treatment period. […] Blood samples were also obtained at Screening/Baseline, Week 3, and Week 6 for clinical laboratory assessments.

[2] = system: adult subjects with schizophrenia; test: PANSS negative symptom subscale score, Clinical Study Three; format: in vivo, human; settings: for Change from Baseline in PANSS Negative Symptom Subscale Score, Mean (SD) / Change from Baseline in PANSS Negative Symptom Subscale Score, Median / Trt Effect (bifeprunox - placebo), PANSS Negative Symptom Subscale Score / mean change (SD) from Baseline to Endpoint in PANSS Negative Symptom subscale score: LOCF; for Change from Baseline in PANSS Negative Symptom Subscale Score, Mean (SD) / Change from Baseline in PANSS Negative Symptom Subscale Score, Median / Trt Effect (bifeprunox - placebo), PANSS Negative Symptom Subscale Score: ITT population; for Trt Effect (bifeprunox - placebo), PANSS Negative Symptom Subscale Score: ANCOVA; for PANSS Negative Symptom subscale score, treatment effect (bifeprunox—placebo): Endpoint LOCF; for mean change (SD) from Baseline to Endpoint in PANSS Negative Symptom subscale score: ITT
Excerpt: SECONDARY OBJECTIVES To assess the efficacy of bifeprunox in treating schizophrenia using the Positive Symptom sub-scale score of the PANSS, the Negative Symptom sub-scale score of the PANSS, the General Psychopathology sub-scale of the PANSS, Brief Psychiatric Rating Scale (BPRS) total score derived from the PANSS, BPRS psychosis score derived from the PANSS, the Clinical Global Impression Severity of Illness score (CGI-S), the Clinical Global Impression Improvement score (CGI-I), CGI-I responder rate, PANSS responder rate based on the PANSS total score, Calgary Depression Scale for Schizophrenia (CDSS), and Subject Satisfaction rating.
There were four treatment arms in this study, approximately 144 subjects per arm. […] After completing the Single-Blind Placebo Lead-in Period of at least three days, bifeprunox-treated subjects were titrated from 0.25 mg up to 20 mg/day or 30 mg/day according to a standardized titration scheme over a seven- or eight-day period, respectively. When the assigned dose was reached, subjects were maintained at that dose for the remainder of the six week treatment period. […] Subjects were hospitalized (if not already inpatients) after eligibility for study entry was verified, starting from the Screening Visit until at least 10 days after Baseline. Subjects could be hospitalized longer than 10 days if considered medically necessary by the Investigator. Rating scale assessments for efficacy and abnormal movement disorders were done weekly except for Week 5. […] Subject satisfaction with study medication was assessed at Week 6.

[3] = Pooled metabolic analysis, 6-week studies: body weight; settings: for ≧7% weight decrease, (%) / ≧7% weight increase, (%) / Weight, Mean (SD) change from baseline: 6-week placebo controlled trials, BX total doses, RISP 6 mg, OLZ 15 mg, HAL 10 mg; for Weight, Mean (SD) change from baseline: endpoint
Excerpt: OBJECTIVE: To examine the metabolic effects of bifeprunox in patients with acute and stable schizophrenia.
METHODS: Metabolic data was compiled from one 6-month and four 6-week studies (i.e., a treatment period) of bifeprunox in patients with stable and acute schizophrenia, respectively. In the 6-month study, patients received bifeprunox (n=331) or placebo (PBO) (n=166). […] Metabolic evaluations included body weight, body mass index (BMI), plasma glucose and lipid profiles. Fasting glucose and lipid values were assessed in one 6-week study and in the 6-month study. Triglyceride:HDL ratio (TG:HDL) was calculated as a marker of insulin resistance. No statistical analyses were performed; only descriptive statistics are presented.

[4] = Bifeprunox 20 mg, Week 6/Endpoint
[5] = Bifeprunox 30 mg, Week 6/Endpoint

O=c1[nH]c2cccc(N3CCN(Cc4cccc(-c5ccccc5)c4)CC3)c2o1 [Bifeprunox, 7-[4-([1,1′-biphenyl]-3-ylmethyl)-1-piperazinyl]-2(3H)-benzoxazolone]
DYSKINESIA, % ([1]; BX 40 mg): (3%) | Dystonia, % ([1]; BX 40 mg): (2%) | EXTRAPYRAMIDAL DISORDER, % ([1]; BX 40 mg): (5%) | HEADACHE NOS, % ([1]; BX 40 mg): (17%) | NERVOUS SYSTEM DISORDERS, % ([1]; BX 40 mg): (37%) | SEDATION, % ([1]; BX 40 mg): 3% | SOMNOLENCE, % ([1]; BX 40 mg): 1 (<1%) | TARDIVE DYSKINESIA, % ([1]; BX 40 mg): 1 (<1%) | TREMOR, % ([1]; BX 40 mg): 7% | safety and tolerability ([1]; bifeprunox 30 mg and 40 mg, 6 weeks): safe and well tolerated | incidence of severe TEAE of schizophrenia ([1]; bifeprunox groups (30, 40 mg)): 3% | Change from Baseline in PANSS Negative Symptom Subscale Score, Mean (SD) ([2]; Bifeprunox 20 mg, Week 1): −1.5 (3.0) | Change from Baseline in PANSS Negative Symptom Subscale Score, Median ([2]; Bifeprunox 20 mg, Week 1): −1 | Change from Baseline in PANSS Negative Symptom Subscale Score, Mean (SD) ([2]; Bifeprunox 20 mg, Week 2): −2.7 (3.6) | Change from Baseline in PANSS Negative Symptom Subscale Score, Median ([2]; Bifeprunox 20 mg, Week 2): −3 | Change from Baseline in PANSS Negative Symptom Subscale Score, Mean (SD) ([2]; Bifeprunox 20 mg, Week 3): −3.2 (4.4) | Change from Baseline in PANSS Negative Symptom Subscale Score, Median ([2]; Bifeprunox 20 mg, Week 3): −3 | Change from Baseline in PANSS Negative Symptom Subscale Score, Mean (SD) ([2]; Bifeprunox 20 mg, Week 4): −3.3 (4.8) | Change from Baseline in PANSS Negative Symptom Subscale Score, Median ([2]; Bifeprunox 20 mg, Week 4): −3 | Change from Baseline in PANSS Negative Symptom Subscale Score, Mean (SD) [2, 4]: −3.3 (5.0) | Change from Baseline in PANSS Negative Symptom Subscale Score, Median [2, 4]: −3 | Trt Effect (bifeprunox - placebo), PANSS Negative Symptom Subscale Score [2, 4]: −0.9 | Change from Baseline in PANSS Negative Symptom Subscale Score, Mean (SD) ([2]; Bifeprunox 30 mg, Week 1): −1.3 (4.0) | Change from Baseline in PANSS Negative Symptom Subscale Score, Median ([2]; Bifeprunox 30 mg, Week 1): −1 | Change from Baseline in PANSS Negative Symptom Subscale Score, Mean (SD) ([2]; Bifeprunox 30 mg, Week 2): −1.9 (4.3) | Change from Baseline in PANSS Negative Symptom Subscale Score, Median ([2]; Bifeprunox 30 mg, Week 2): −1 | Change from Baseline in PANSS Negative Symptom Subscale Score, Mean (SD) ([2]; Bifeprunox 30 mg, Week 3): −2.5 (4.8) | Change from Baseline in PANSS Negative Symptom Subscale Score, Median ([2]; Bifeprunox 30 mg, Week 3): −2 | Change from Baseline in PANSS Negative Symptom Subscale Score, Mean (SD) ([2]; Bifeprunox 30 mg, Week 4): −2.6 (5.0) | Change from Baseline in PANSS Negative Symptom Subscale Score, Median ([2]; Bifeprunox 30 mg, Week 4): −2 | Change from Baseline in PANSS Negative Symptom Subscale Score, Mean (SD) [2, 5]: −3.1 (5.2) | Change from Baseline in PANSS Negative Symptom Subscale Score, Median [2, 5]: −2 | Trt Effect (bifeprunox - placebo), PANSS Negative Symptom Subscale Score [2, 5]: −0.6 | PANSS Negative Symptom subscale score, treatment effect (bifeprunox—placebo) ([2]; bifeprunox 20 mg): −0.9 | mean change (SD) from Baseline to Endpoint in PANSS Negative Symptom subscale score ([2]; bifeprunox 20 mg): −3.3 (5.0) | PANSS Negative Symptom subscale score, treatment effect (bifeprunox—placebo) ([2]; bifeprunox 30 mg): −0.6 | mean change (SD) from Baseline to Endpoint in PANSS Negative Symptom subscale score ([2]; bifeprunox 30 mg): −3.1 (5.2) | ≧7% weight decrease, (%) ([3]; baseline BMI 18.5-25 kg/m^2): 5.4% | ≧7% weight increase, (%) ([3]; baseline BMI 18.5-25 kg/m^2): 2.4% | ≧7% weight decrease, (%) ([3]; baseline BMI <18.5 kg/m^2): 3.7% | ≧7% weight increase, (%) ([3]; baseline BMI <18.5 kg/m^2): 3.7% | ≧7% weight decrease, (%) ([3]; baseline BMI >25-30 kg/m^2): 8.8% | ≧7% weight increase, (%) ([3]; baseline BMI >25-30 kg/m^2): 1.8% | ≧7% weight decrease, (%) ([3]; baseline BMI >30 kg/m^2): 5.8% | ≧7% weight increase, (%) ([3]; baseline BMI >30 kg/m^2): 1.4% | ≧7% weight decrease, (%) ([3]; baseline BMI All): 6.2% | ≧7% weight increase, (%) ([3]; baseline BMI All): 2.1% | Weight, Mean (SD) change from baseline ([3]; baseline BMI 18.5-25 kg/m^2): −0.4 (2.6) kg | Weight, Mean (SD) change from baseline ([3]; baseline BMI <18.5 kg/m^2): 0.0 (1.7) kg | Weight, Mean (SD) change from baseline ([3]; baseline BMI >25-30 kg/m^2): −0.9 (3.2) kg | Weight, Mean (SD) change from baseline ([3]; baseline BMI >30 kg/m^2): −1.4 (3.9) kg | Weight, Mean (SD) change from baseline ([3]; baseline BMI All): −0. (3.2) kg | mean weight decrease ([3]; 6-week studies, pooled): 0.8 kg | mean weight change ([3]; 6-week studies, pooled (overall summary)): -0.8 kg | mean change in weight at endpoint ([3]; 6-week studies, patients with nausea or vomiting): -1.7 kg | mean change in weight at endpoint ([3]; 6-week studies, patients without nausea or vomiting): -0.4 kg
